In ChEMBL document CHEMBL1201862, “PubChem BioAssay data set” (2004):
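96-well plates; 48 h exposure; 5 concentrations. Endpoints by linear interpolation between flanking doses. Not reached: highest tested concentration assigned. Abbreviation: GI50, concentration required for 50% inhibition of growth.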 Active and inactive are the calls of the source. No stated cut-off is given here; in the data, active = GI50 up to about 1.1 µM and inactive = higher.

Legend:
Experiment in all cases: NCI-60 cell line screen, 48 h
KM-20L2 = tested on: KM-20L2
HCC 2998 = tested on: HCC 2998
786-0 = tested on: 786-0
NCI-H23 = tested on: NCI-H23
SK-MEL-2 = tested on: SK-MEL-2
RPMI-8226 = tested on: RPMI-8226
HT-29 = tested on: HT-29
SW-620 = tested on: SW-620
NCI-H226 = tested on: NCI-H226
DMS-114 = tested on: DMS-114
XF498 = tested on: XF498
KM12 = tested on: KM12
OVCAR-4 = tested on: OVCAR-4
Malme-3M = tested on: Malme-3M
U-251 = tested on: U-251
DLD-1 = tested on: DLD-1
UACC-257 = tested on: UACC-257
M19-MEL = tested on: M19-MEL
SR = tested on: SR
HOP-18 = tested on: HOP-18
SF-268 = tested on: SF-268
SK-MEL-5 = tested on: SK-MEL-5
K562 = tested on: K562
DMS-273 = tested on: DMS-273
TK-10 = tested on: TK-10
NCI-H460 = tested on: NCI-H460
IGROV-1 = tested on: IGROV-1
RXF 393 = tested on: RXF 393
HCT-116 = tested on: HCT-116
M14 = tested on: M14
OVCAR-8 = tested on: OVCAR-8
OVCAR-3 = tested on: OVCAR-3
SK-OV-3 = tested on: SK-OV-3
SNB-19 = tested on: SNB-19
OVCAR-5 = tested on: OVCAR-5
SF-539 = tested on: SF-539
LOX IMVI = tested on: LOX IMVI
MOLT-4 = tested on: MOLT-4
COLO 205 = tested on: COLO 205
SF-295 = tested on: SF-295
SNB-75 = tested on: SNB-75
ACHN = tested on: ACHN
NCI-H522 = tested on: NCI-H522
HOP-62 = tested on: HOP-62
SK-MEL-28 = tested on: SK-MEL-28
HCT-15 = tested on: HCT-15
A549 = tested on: A549
SN12C = tested on: SN12C
UACC-62 = tested on: UACC-62
LXFL 529 = tested on: LXFL 529
UO-31 = tested on: UO-31
HL-60 = tested on: HL-60
CCRF-CEM = tested on: CCRF-CEM
HOP-92 = tested on: HOP-92
EKVX = tested on: EKVX
RXF 631 = tested on: RXF 631
CAKI-1 = tested on: CAKI-1
A498 = tested on: A498

Measured: GI50

NC1CC(n2ccc(=O)[nH]c2=O)OC1C(O)CO (configuration not stated)
inactive: KM-20L2 > 100 µM | HCC 2998 > 100 µM | 786-0 > 100 µM | NCI-H23 > 100 µM | SK-MEL-2 > 100 µM | RPMI-8226 > 100 µM | HT-29 > 100 µM | SW-620 > 100 µM | NCI-H226 > 100 µM | DMS-114 > 100 µM | XF498 > 100 µM | KM12 > 100 µM | OVCAR-4 > 100 µM | Malme-3M > 100 µM | U-251 > 100 µM | DLD-1 > 100 µM | UACC-257 > 100 µM | M19-MEL > 100 µM | SR > 100 µM | HOP-18 > 100 µM | SF-268 > 100 µM | SK-MEL-5 > 100 µM | K562 > 100 µM | DMS-273 > 100 µM | TK-10 > 100 µM | NCI-H460 > 100 µM | IGROV-1 > 100 µM | RXF 393 > 100 µM | HCT-116 > 100 µM | M14 > 100 µM | OVCAR-8 > 100 µM | OVCAR-3 > 100 µM | SK-OV-3 > 100 µM | SNB-19 > 100 µM | OVCAR-5 > 100 µM | SF-539 > 100 µM | LOX IMVI > 100 µM | MOLT-4 > 100 µM | COLO 205 > 100 µM | SF-295 > 100 µM | SNB-75 > 100 µM | ACHN > 100 µM | NCI-H522 > 100 µM | HOP-62 > 100 µM | SK-MEL-28 > 100 µM | A549 > 100 µM | SN12C > 100 µM | UACC-62 > 100 µM | LXFL 529 > 100 µM | UO-31 > 100 µM | HL-60 > 100 µM | CCRF-CEM > 100 µM | HOP-92 > 100 µM | EKVX > 100 µM | RXF 631 > 100 µM
> 100 µM: HCT-15

CCCCCCCCSC(=O)NCCCC
inactive: KM-20L2 23.7 µM | 786-0 38.1 µM | NCI-H23 49.7 µM | SK-MEL-2 17.7 µM | RPMI-8226 20.3 µM | HT-29 26.4 µM | SW-620 75.3 µM | XF498 21.4 µM | KM12 51.8 µM | OVCAR-4 33.5 µM | Malme-3M 24.5 µM | U-251 35.5 µM | DLD-1 35.8 µM | M19-MEL 42.1 µM | HOP-18 94.6 µM | SF-268 35.8 µM | SK-MEL-5 22.2 µM | K562 38.2 µM | DMS-273 35 µM | TK-10 46.7 µM | NCI-H460 34 µM | IGROV-1 > 100 µM | RXF 393 21.5 µM | M14 25.8 µM | OVCAR-8 36.6 µM | OVCAR-3 41.3 µM | SK-OV-3 > 100 µM | SNB-19 34.6 µM | OVCAR-5 48.4 µM | SF-539 74 µM | LOX IMVI 19.9 µM | MOLT-4 23.2 µM | COLO 205 54.6 µM | SF-295 38.5 µM | SNB-75 24.6 µM | ACHN 34.7 µM | NCI-H522 27.1 µM | SK-MEL-28 29 µM | CAKI-1 36.1 µM | A549 38.2 µM | SN12C 33 µM | UACC-62 43 µM | A498 54.1 µM | LXFL 529 37.8 µM | UO-31 19.6 µM | HL-60 18.7 µM | CCRF-CEM 28.2 µM | HOP-92 14.4 µM | EKVX 27.8 µM | RXF 631 39.4 µM
27.2 µM: HCT-15
